Measurements reported in patent US6737383B1, “Herbicidal oxadiazolidines” (priority 1999, dated 2004).

What was measured:
pigweed = experiment: Test B pre/postemergence pigweed; type: in vivo, Amaranthus retroflexus
In short: (§1)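 Herbicidal effect was estimated by eye on a ten-point control scale after plants spent twelve to sixteen days in a greenhouse following soil or foliar treatment. Foliar sprays targeted plants at one to four leaves; all doses were formulated in a non-phytotoxic solvent with surfactant.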

surinam grass = experiment: Test B pre/postemergence surinam grass; type: in vivo, Brachiaria decumbens
In short: as §1

velvetleaf = experiment: Test B pre/postemergence velvetleaf; type: in vivo, Abutilon theophrasti; conditions: for Plant response rating, Velvetleaf: Rate 250 g/ha
In short: as §1

purple nutsedge = experiment: Test B pre/postemergence purple nutsedge; type: in vivo, Cyperus rotundus
In short: as §1

smallflower flatsedge = experiment: Test B flood test smallflower flatsedge; type: in vivo, Cyperus difformis
In short: (§2)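 Flood test on plants grown to the 2-leaf stage; treated plants kept in greenhouse twelve to sixteen days, then visually rated against controls on a 0 (no effect) to 10 (complete control) scale.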

blackgrass = experiment: Test B pre/postemergence blackgrass; type: in vivo, Alopecurus myosuroides
In short: as §1

rice = experiment: Test B flood test rice; type: in vivo, Oryza sativa
In short: as §2

corn = experiment: Test B pre/postemergence corn; type: in vivo, Zea mays
In short: as §1

cocklebur = experiment: Test B pre/postemergence cocklebur; type: in vivo, Xanthium strumarium
In short: as §1

crabgrass = experiment: Test B pre/postemergence crabgrass; type: in vivo, Digitaria sanguinalis
In short: as §1

morningglory = experiment: Test B pre/postemergence morningglory; type: in vivo, Ipomoea hederacea
In short: as §1

rape = experiment: Test B pre/postemergence rape; type: in vivo, Brassica napus
In short: as §1

giant foxtail = experiment: Test B pre/postemergence giant foxtail; type: in vivo, Setaria faberii
In short: as §1

duck salad = experiment: Test B flood test duck salad; type: in vivo, Heteranthera limosa
In short: as §2

wheat = experiment: Test B pre/postemergence wheat; type: in vivo, Triticum aestivum; conditions: for Plant response rating, Wheat: Rate 250 g/ha
In short: as §1

sugar beet = experiment: Test B pre/postemergence sugar beet; type: in vivo, Beta vulgaris; conditions: for Plant response rating, Sugarbeets: Rate 250 g/ha
In short: as §1

[1] = Postemergence, Rate 125 g/ha, scale of 0 to 10 where 0 is no effect and 10 is complete control
[2] = Preemergence, Rate 62 g/ha, scale 0 to 10 (0 no effect, 10 complete control)
[3] = Preemergence, Rate 125 g/ha, scale 0 to 10 (0 no effect, 10 complete control)
[4] = Preemergence, Rate 250 g/ha, scale of 0 to 10 where 0 is no effect and 10 is complete control
[5] = Preemergence, Rate 500 g/ha, scale 0 to 10 (0 no effect, 10 complete control)
[6] = Rate 62 g/ha, Postemergence, scale of 0 to 10 where 0 is no effect and 10 is complete control
[7] = Rate 500 g/ha, Postemergence, scale 0 to 10, 0 no effect, 10 complete control
[8] = Postemergence, Rate 250 g/ha, scale 0 to 10, 0 no effect, 10 complete control
[9] = Preemergence, Rate 125 g/ha, 0 is no effect, 10 is complete control
[10] = Preemergence, scale of 0 to 10 where 0 is no effect and 10 is complete control
[11] = Postemergence, scale 0 to 10, 0 is no effect, 10 is complete control
[12] = Postemergence (flood test species), Rate 125 g/ha, scale of 0 to 10 where 0 is no effect and 10 is complete control
[13] = Rate 62 g/ha, Postemergence section, flood test species, scale of 0 to 10 where 0 is no effect and 10 is complete control
[14] = Rate 250 g/ha, Postemergence (flood test), scale 0 to 10, 0 is no effect, 10 is complete control
[15] = Rate 250 g/ha, headed Pre-emergence (flood test species), scale 0 to 10 (0 no effect, 10 complete control)
[16] = Rate 500 g/ha, headed Pre-emergence (flood test species), scale 0 to 10 (0 no effect, 10 complete control)
[17] = Rate 500 g/ha, listed under Postemergence (flood test species), scale 0 to 10, 0 no effect, 10 complete control
[18] = Rate 2000 g/ha, Pre-emergence (as headed), scale 0 to 10
[19] = Rate 1000 g/ha, Pre-emergence (as headed), scale 0 to 10

CC(C)N(C(=O)n1oc(=O)n(C(C)C)c1=O)c1ccccc1 [Compound 113]
Redroot pigweed plant response rating (pigweed; [1]): 4 | Redroot pigweed plant response rating (pigweed; [2]): 8 | Plant response rating, Redroot pigweed (pigweed; [3]): 8 | Plant response rating, Redroot pigweed (pigweed; [4]): 10 | Redroot pigweed plant response rating (pigweed; [5]): 10 | Redroot pigweed plant response rating (pigweed; [6]): 3 | Plant response rating, Redroot pigweed (pigweed; Rate 250 g/ha, Postemergence, scale 0 to 10, 0 is no effect, 10 is complete control): 6 | Redroot pigweed plant response rating (pigweed; [7]): 7 | B. signalgrass plant response rating (surinam grass; Postemergence, Rate 62 g/ha, scale 0 to 10, 0 is no effect, 10 is complete control): 4 | B. signalgrass plant response rating (surinam grass; [8]): 8 | B. signalgrass plant response rating (surinam grass; [2]): 7 | Plant response rating, B. signalgrass (surinam grass; [3]): 9 | Plant response rating, B. signalgrass (surinam grass; [4]): 10 | B. signalgrass plant response rating (surinam grass; [5]): 10 | B. signalgrass plant response rating (surinam grass; Rate 125 g/ha, Postemergence, scale 0 to 10, 0 no effect, 10 complete control): 7 | B. signalgrass plant response rating (surinam grass; Rate 500 g/ha, Postemergence, scale of 0 to 10 where 0 is no effect and 10 is complete control): 8 | Velvetleaf plant response rating (velvetleaf; [1]): 1 | Velvetleaf plant response rating (velvetleaf; [2]): 6 | Velvetleaf plant response rating (0 to 10 scale) (velvetleaf; [9]): 7 | Plant response rating, Velvetleaf (velvetleaf; [10]): 8 | Velvetleaf plant response rating (velvetleaf; [5]): 8 | Velvetleaf plant response rating (velvetleaf; [6]): 0 | Plant response rating, Velvetleaf (velvetleaf; [11]): 7 | Velvetleaf plant response rating (velvetleaf; [7]): 8 | Nutsedge plant response rating (purple nutsedge; [1]): 0 | Nutsedge plant response rating (purple nutsedge; [8]): 0 | Nutsedge plant response rating (purple nutsedge; [2]): 0 | Plant response rating, Nutsedge (purple nutsedge; [3]): 0 | Plant response rating, Nutsedge (purple nutsedge; [4]): 0 | Nutsedge plant response rating (purple nutsedge; [5]): 0 | Nutsedge plant response rating (purple nutsedge; [6]): 0 | Nutsedge plant response rating (purple nutsedge; [7]): 2 | S. Flatsedge plant response rating (smallflower flatsedge; [12]): 0 | S. Flatsedge plant response rating (smallflower flatsedge; Pre-emergence, Rate 1000 g/ha, scale 0 to 10 (0 no effect, 10 complete control)): 0 | S. Flatsedge plant response rating (smallflower flatsedge; [13]): 0 | Plant response rating, S. Flatsedge (smallflower flatsedge; [14]): 0 | S. Flatsedge plant response rating (smallflower flatsedge; [15]): 0 | Plant response rating, S. Flatsedge (smallflower flatsedge; [16]): 0 | S. Flatsedge plant response rating (smallflower flatsedge; [17]): 0 | S. Flatsedge plant response rating (smallflower flatsedge; [18]): 9 | Blackgrass plant response rating (blackgrass; [1]): 8 | Blackgrass plant response rating (blackgrass; [8]): 8 | Blackgrass plant response rating (blackgrass; [2]): 8 | Plant response rating, Blackgrass (blackgrass; [3]): 9 | Plant response rating, Blackgrass (blackgrass; [4]): 10 | Blackgrass plant response rating (blackgrass; [5]): 10 | Blackgrass plant response rating (blackgrass; [6]): 8 | Blackgrass plant response rating (blackgrass; [7]): 8 | Rice plant response rating (rice; [12]): 0 | Rice plant response rating (rice; [13]): 0 | Plant response rating, Rice (rice; [14]): 0 | Rice plant response rating (rice; [15]): 0 | Plant response rating, Rice (rice; [16]): 0 | Rice plant response rating (rice; [17]): 0 | Rice plant response rating (rice; [19]): 0 | Rice plant response rating (rice; [18]): 7 | Corn plant response rating (corn; [1]): 1 | Corn plant response rating (corn; [8]): 5 | Corn plant response rating (corn; [2]): 3 | Plant response rating, Corn (corn; [3]): 4 | Plant response rating, Corn (corn; [4]): 8 | Corn plant response rating (corn; [5]): 10 | Corn plant response rating (corn; [6]): 0 | Corn plant response rating (corn; [7]): 6 | Cocklebur plant response rating (cocklebur; [1]): 1 | Cocklebur plant response rating (cocklebur; [8]): 1 | Cocklebur plant response rating (cocklebur; [2]): 0 | Plant response rating, Cocklebur (cocklebur; [3]): 1 | Plant response rating, Cocklebur (cocklebur; [4]): 3 | Cocklebur plant response rating (cocklebur; [5]): 3 | Cocklebur plant response rating (cocklebur; [6]): 1 | Cocklebur plant response rating (cocklebur; [7]): 4 | Crabgrass plant response rating (crabgrass; [1]): 9 | Crabgrass plant response rating (crabgrass; [8]): 9 | Crabgrass plant response rating (crabgrass; [2]): 7 | Plant response rating, Crabgrass (crabgrass; [3]): 10 | Plant response rating, Crabgrass (crabgrass; [4]): 10 | Crabgrass plant response rating (crabgrass; [5]): 10 | Crabgrass plant response rating (crabgrass; [6]): 9 | Crabgrass plant response rating (crabgrass; [7]): 9 | Morningglory plant response rating (morningglory; [1]): 5 | Morningglory plant response rating (morningglory; [8]): 8 | Morningglory plant response rating (morningglory; [2]): 1 | Plant response rating, Morningglory (morningglory; [3]): 2 | Plant response rating, Morningglory (morningglory; [4]): 7 | Morningglory plant response rating (morningglory; [5]): 8 | Morningglory plant response rating (morningglory; [6]): 5 | Morningglory plant response rating (morningglory; [7]): 10 | Rape plant response rating (rape; [1]): 3 | Rape plant response rating (rape; [8]): 7 | Rape plant response rating (rape; [2]): 4 | Plant response rating, Rape (rape; [3]): 7 | Plant response rating, Rape (rape; [4]): 10 | Rape plant response rating (rape; [5]): 10 | Rape plant response rating (rape; [6]): 0 | Rape plant response rating (rape; [7]): 7 | Giant foxtail plant response rating (giant foxtail; [1]): 9 | Giant foxtail plant response rating (giant foxtail; [8]): 9 | Giant foxtail plant response rating (giant foxtail; [2]): 9 | Plant response rating, Giant foxtail (giant foxtail; [3]): 10 | Plant response rating, Giant foxtail (giant foxtail; [4]): 10 | Giant foxtail plant response rating (giant foxtail; [5]): 10 | Giant foxtail plant response rating (giant foxtail; [6]): 9 | Giant foxtail plant response rating (giant foxtail; [7]): 9 | Ducksalad plant response rating (duck salad; [12]): 0 | Ducksalad plant response rating (duck salad; [13]): 0 | Ducksalad plant response rating (duck salad; [15]): 0 | Plant response rating, Ducksalad (duck salad; [16]): 0 | Ducksalad plant response rating (duck salad; [17]): 0 | Ducksalad plant response rating (duck salad; [19]): 1 | Ducksalad plant response rating (duck salad; [18]): 8 | Ducksalad plant response rating (duck salad; flood test, listed under Postemergence, Rate 250 g/ha, scale 0 to 10, 0 no effect, 10 complete control): 0 | Wheat plant response rating (wheat; [1]): 3 | Wheat plant response rating (wheat; [2]): 2 | Wheat plant response rating (0 to 10 scale) (wheat; [9]): 4 | Plant response rating, Wheat (wheat; [10]): 7 | Wheat plant response rating (wheat; [5]): 8 | Wheat plant response rating (wheat; [6]): 1 | Plant response rating, Wheat (wheat; [11]): 4 | Wheat plant response rating (wheat; [7]): 6 | Sugarbeets plant response rating (sugar beet; [1]): 4 | Sugarbeets plant response rating (sugar beet; [2]): 7 | Sugarbeets plant response rating (0 to 10 scale) (sugar beet; [9]): 8 | Plant response rating, Sugarbeets (sugar beet; [10]): 9 | Sugarbeets plant response rating (sugar beet; [5]): 10 | Sugarbeets plant response rating (sugar beet; [6]): 4 | Plant response rating, Sugarbeets (sugar beet; [11]): 5 | Sugarbeets plant response rating (sugar beet; [7]): 6
